melting point: 120 °C
SMILES: CCCNCCOc1ccc(NC(=O)c2n[nH]c3c2C(=O)CCC3)cn1 [Example 4, 4-Oxo-4,5,6,7-tetrahydro-1H-indazole-3-carboxylic acid [6-(2-propylamino-ethoxy)-pyridin-3-yl]-amide]

— patent publication US6656941B2, “Aryl substituted tetrahydroindazoles” (Neurogen Corporation, priority 2000, dated 2003)
